Test: Effect of alkalinizing agents on the pH of a solution of 0.1 N HCl with a starting pH of 2.0
Assay type: physicochemical
Experimental: Various alkalinizing agents were added to a solution of 0.1 N HCl with a starting pH of 2.0 and the pH of the solution was tested at different time points.

## Cl.N=C(N)NCCC[C@H](N)C(=O)O [Arginine HCl, L-arginine-HCl]
100 mg in 200 ml, 10 min
  pH: 2.20
100 mg in 200 ml, 20 min
  pH: 2.20
100 mg in 200 ml, 30 min
  pH: 2.20
100 mg in 200 ml, 40 min
  pH: 2.20
100 mg in 200 ml, 50 min
  pH: 2.20
100 mg in 200 ml, 60 min
  pH: 2.20

## O=C([O-])[O-].[Mg+2] [Magnesium Carbonate, magnesium carbonate]
80 mg in 200 ml, 0 min
  pH: 2.73
80 mg in 200 ml, 1 min
  pH: 4.78
80 mg in 200 ml, 2 min
  pH: 6.09
80 mg in 200 ml, 3 min
  pH: 6.57
80 mg in 200 ml, 4 min
  pH: 7.44
80 mg in 200 ml, 5 min
  pH: 8.64
80 mg in 200 ml, 6 min
  pH: 8.92
80 mg in 200 ml, 7 min
  pH: 9.03
80 mg in 200 ml, 8 min
  pH: 9.09
80 mg in 200 ml, 9 min
  pH: 9.13
80 mg in 200 ml, 10 min
  pH: 9.17
80 mg in 200 ml, 20 min
  pH: 9.26
80 mg in 200 ml, 30 min
  pH: 9.26
80 mg in 200 ml, 30 minute timecourse
  pH of the solution: above 9
100 mg in 200 ml, 10 min
  pH: 3.05
100 mg in 200 ml, 20 min
  pH: 3.05
100 mg in 200 ml, 30 min
  pH: 3.05
100 mg in 200 ml, 40 min
  pH: 3.05
100 mg in 200 ml, 50 min
  pH: 3.05
100 mg in 200 ml, 60 min
  pH: 3.05

## CNC[C@H](O)[C@@H](O)[C@H](O)[C@H](O)CO [Meglumine, meglumine]
120 mg in 200 ml, 10 min
  pH: 2.16
120 mg in 200 ml, 20 min
  pH: 2.16
120 mg in 200 ml, 30 min
  pH: 2.16
120 mg in 200 ml, 40 min
  pH: 2.16
120 mg in 200 ml, 50 min
  pH: 2.16
120 mg in 200 ml, 60 min
  pH: 2.16

## [O]=[Mg] [MgO, magnesium oxide]
40 mg per 320 mL, 0 min
  pH: 2.01
40 mg per 320 mL, 1 min
  pH: 2.01
40 mg per 320 mL, 2 min
  pH: 2.03
40 mg per 320 mL, 3 min
  pH: 2.08
40 mg per 320 mL, 4 min
  pH: 2.10
40 mg per 320 mL, 5 min
  pH: 2.13
40 mg per 320 mL, 6 min
  pH: 2.16
40 mg per 320 mL, 7 min
  pH: 2.19
40 mg per 320 mL, 8 min
  pH: 2.22
40 mg per 320 mL, 9 min
  pH: 2.23
40 mg per 320 mL, 10 min
  pH: 2.24
40 mg per 320 mL, 20 min
  pH: 2.30
40 mg per 320 mL, 30 min
  pH: 2.33
40 mg per 320 mL, 40 min
  pH: 2.39
40 mg per 320 mL, 50 min
  pH: 2.34
40 mg per 320 mL, 60 min
  pH: 2.34
80 mg per 320 mL, 0 min
  pH: 1.99
80 mg per 320 mL, 1 min
  pH: 2.00
80 mg per 320 mL, 2 min
  pH: 2.02
80 mg per 320 mL, 3 min
  pH: 2.05
80 mg per 320 mL, 4 min
  pH: 2.06
80 mg per 320 mL, 5 min
  pH: 2.08
80 mg per 320 mL, 6 min
  pH: 2.10
80 mg per 320 mL, 7 min
  pH: 2.12
80 mg per 320 mL, 8 min
  pH: 2.13
80 mg per 320 mL, 9 min
  pH: 2.15
80 mg per 320 mL, 10 min
  pH: 2.17
80 mg per 320 mL, 20 min
  pH: 2.30
80 mg per 320 mL, 30 min
  pH: 2.40
80 mg per 320 mL, 40 min
  pH: 2.48
80 mg per 320 mL, 50 min
  pH: 2.55
80 mg per 320 mL, 60 min
  pH: 2.63
80 mg powder/200 ml, 4 min
  pH: 6.21
80 mg powder/200 ml, 5 min
  pH: 6.67
80 mg powder/200 ml, 6 min
  pH: 7.22
80 mg powder/200 ml, 7 min
  pH: 7.98
80 mg powder/200 ml, 8 min
  pH: 8.42
80 mg powder/200 ml, 9 min
  pH: 8.44
80 mg powder/200 ml, 10 min
  pH: 10.13
80 mg powder/200 ml, 20 min
  pH: 10.13
80 mg powder/200 ml, 30 min
  pH: 8.66
80 mg powder/200 ml, 40 min
  pH: 10.13
80 mg, Granular/200 ml, 4 min
  pH: 2.75
80 mg, Granular/200 ml, 5 min
  pH: 3.37
80 mg, Granular/200 ml, 6 min
  pH: 5.50
80 mg, Granular/200 ml, 7 min
  pH: 6.04
80 mg, Granular/200 ml, 8 min
  pH: 6.38
80 mg, Granular/200 ml, 9 min
  pH: 6.74
80 mg, Granular/200 ml, 10 min
  pH: 7.05
80 mg, Granular/200 ml, 20 min
  pH: 7.50
80 mg, Granular/200 ml, 30 min
  pH: 9.14
100 mg powder/200 ml, 4 min
  pH: 2.37
100 mg powder/200 ml, 5 min
  pH: 2.37
100 mg powder/200 ml, 6 min
  pH: 3.52
100 mg powder/200 ml, 7 min
  pH: 3.52
100 mg powder/200 ml, 8 min
  pH: 3.52
100 mg powder/200 ml, 9 min
  pH: 3.52
100 mg powder/200 ml, 10 min
  pH: 3.52
100 mg powder/200 ml, 20 min
  pH: 5.00
100 mg powder/200 ml, 30 min
  pH: 6.50
100 mg powder/200 ml, 40 min
  pH: 8.09
120 mg powder/200 ml, 4 min
  pH: 6.97
120 mg powder/200 ml, 5 min
  pH: 8.21
120 mg powder/200 ml, 6 min
  pH: 8.21
120 mg powder/200 ml, 7 min
  pH: 8.21
120 mg powder/200 ml, 8 min
  pH: 8.21
120 mg powder/200 ml, 9 min
  pH: 8.21
120 mg powder/200 ml, 10 min
  pH: 8.21
120 mg powder/200 ml, 20 min
  pH: 8.21
120 mg powder/200 ml, 30 min
  pH: 8.21
160 mg per 320 mL, 0 min
  pH: 1.99
160 mg per 320 mL, 1 min
  pH: 2.05
160 mg per 320 mL, 2 min
  pH: 2.14
160 mg per 320 mL, 3 min
  pH: 2.24
160 mg per 320 mL, 4 min
  pH: 2.35
160 mg per 320 mL, 5 min
  pH: 2.47
160 mg per 320 mL, 6 min
  pH: 2.60
160 mg per 320 mL, 7 min
  pH: 2.71
160 mg per 320 mL, 8 min
  pH: 2.83
160 mg per 320 mL, 9 min
  pH: 2.95
160 mg per 320 mL, 10 min
  pH: 3.07
160 mg per 320 mL, 20 min
  pH: 8.16
160 mg per 320 mL, 30 min
  pH: 9.30
160 mg per 320 mL, 40 min
  pH: 9.54
160 mg per 500 mL, 0 min
  pH: 1.98
160 mg per 500 mL, 1 min
  pH: 2.00
160 mg per 500 mL, 2 min
  pH: 2.02
160 mg per 500 mL, 3 min
  pH: 2.05
160 mg per 500 mL, 4 min
  pH: 2.07
160 mg per 500 mL, 5 min
  pH: 2.12
160 mg per 500 mL, 6 min
  pH: 2.15
160 mg per 500 mL, 7 min
  pH: 2.18
160 mg per 500 mL, 8 min
  pH: 2.22
160 mg per 500 mL, 9 min
  pH: 2.24
160 mg per 500 mL, 10 min
  pH: 2.27
160 mg per 500 mL, 20 min
  pH: 2.54
160 mg per 500 mL, 30 min
  pH: 2.62
160 mg per 500 mL, 40 min
  pH: 2.74
160 mg per 500 mL, 50 min
  pH: 2.86
160 mg per 500 mL, 60 min
  pH: 2.96
80-120 mg/200 ml powder and 80 mg granular/200 ml
  effect on pH of the solution: rapidly raise the pH of the solution to neutral or higher

## CC(=O)[O-].[Na+] [Sodium Acetate, sodium acetate]
200 mg in 200 ml, 10 min
  pH: 4.73
200 mg in 200 ml, 20 min
  pH: 4.96
200 mg in 200 ml, 30 min
  pH: 5.08
200 mg in 200 ml, 40 min
  pH: 5.21
200 mg in 200 ml, 50 min
  pH: 5.34
200 mg in 200 ml, 60 min
  pH: 5.34

Reference: patent publication US9700516B2, “Compositions and methods for reducing overdose” (priority 2014, dated 2017)
